US9738641B2, “Bicyclic inhibitors” (Kalvista Pharmaceuticals Limited, priority 2013, dated 2017)

What was measured:
[1] = target: Human plasma kallikrein (Homo sapiens (Human), UniProt P03952); assay: Determination of the IC50 for plasma kallikrein (fluorogenic substrate H-DPro-Phe-Arg-AFC); format: biochemical; conditions: 37° C., read-out: IC50 (human PKal)
Method: Determination of the IC50 for Plasma Kallikrein
(§1) Plasma kallikrein inhibitory activity in vitro was determined using standard published methods (see e.g. Johansen et al., Int. J. Tiss. Reac. 1986, 8, 185; Shori et al., Biochem. Pharmacol., 1992, 43, 1209; Stürzebecher et al., Biol. Chem. Hoppe-Seyler, 1992, 373, 1025). Human plasma kallikrein (Protogen) was incubated at 37° C. with the fluorogenic substrate H-DPro-Phe-Arg-AFC and various concentrations of the test compound. Residual enzyme activity (initial rate of reaction) was determined by measuring the change in optical absorbance at 410 nm and the IC50 value for the test compound was determined.

[2] = target: Human KLK1 (Homo sapiens (Human), UniProt P06870); assay: Determination of the IC50 for KLK1 (fluorogenic substrate H-DVal-Leu-Arg-AFC); format: biochemical; conditions: 37° C.
Method: Determination of the IC50 for KLK1
as §1, with “KLK1” for “Plasma kallikrein”, “KLK1 (Callbiochem)” for “plasma kallikrein (Protogen)”, “H-DVal-Leu-Arg-AFC” for “H-DPro-Phe-Arg-AFC”

[3] = tested on: retinal vascular permeability and retinal blood flow; conditions: diabetic rats; cited from earlier work
[4] = in vivo; cited from earlier work

Sequence of Human KLK1 (P06870 25-262): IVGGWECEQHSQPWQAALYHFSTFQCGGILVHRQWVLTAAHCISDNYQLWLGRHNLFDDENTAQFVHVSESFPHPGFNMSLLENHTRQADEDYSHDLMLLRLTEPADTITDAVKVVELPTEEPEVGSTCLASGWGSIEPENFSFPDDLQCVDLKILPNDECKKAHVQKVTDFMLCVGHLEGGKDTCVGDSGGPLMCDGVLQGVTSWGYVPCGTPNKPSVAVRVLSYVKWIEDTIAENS
Sequence of Human plasma kallikrein (P03952 391-638): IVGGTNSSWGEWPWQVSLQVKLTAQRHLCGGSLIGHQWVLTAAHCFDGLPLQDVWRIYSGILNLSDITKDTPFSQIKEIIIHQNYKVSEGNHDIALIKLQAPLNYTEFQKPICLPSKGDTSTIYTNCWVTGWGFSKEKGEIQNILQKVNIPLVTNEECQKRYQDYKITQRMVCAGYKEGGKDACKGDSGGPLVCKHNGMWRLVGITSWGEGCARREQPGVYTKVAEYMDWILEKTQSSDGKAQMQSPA
Sequence of Human plasma kallikrein (P03952 20-390 partner): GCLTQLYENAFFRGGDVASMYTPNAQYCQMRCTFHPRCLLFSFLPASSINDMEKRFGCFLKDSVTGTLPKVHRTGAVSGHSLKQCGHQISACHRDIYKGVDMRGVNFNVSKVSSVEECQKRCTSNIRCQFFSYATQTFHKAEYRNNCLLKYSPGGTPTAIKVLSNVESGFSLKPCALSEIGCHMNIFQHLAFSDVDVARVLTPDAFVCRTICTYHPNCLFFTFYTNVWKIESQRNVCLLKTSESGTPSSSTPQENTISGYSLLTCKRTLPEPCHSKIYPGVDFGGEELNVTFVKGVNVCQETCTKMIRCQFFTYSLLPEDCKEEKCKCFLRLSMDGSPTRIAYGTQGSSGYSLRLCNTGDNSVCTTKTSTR

SMILES	IC50 [1] [µM]	IC50 [2] [µM]	effect on retinal vascular permeability and retinal blood flow abnormalities [3]	oral availability [4]
Cc1cc(CN)ccc1CNc1nccc2c1ccn2Cc1csc(-c2ccccc2)n1 [Example 6, (4-Aminomethyl-2-methyl-benzyl)-[1-(2-phenyl-thiazol-4-ylmethyl)-1H-pyrrolo[3,2-c]pyridin-4-yl]-amine]	8.59	8.14	–	–
N=C(N)c1ccc(CNC(=O)c2cnn(Cc3ccccc3)c2)cc1 [ASP-440]	–	–	ameliorated both retinal vascular permeability and retinal blood flow abnormalities	poor oral availability
Cc1cc(CN)ccc1CNc1nccc2c1ccn2Cc1ccc(Cn2ccccc2=O)cc1 [Example 8, 1-{4-[4-(4-Aminomethyl-2-methyl-benzylamino)-pyrrolo[3,2-c]pyridin-1-ylmethyl]-benzyl}-1H-pyridin-2-one]	6.3	5.3	–	–
Cc1cnn(Cc2ccc(CN3CCOc4c(NCc5ccc6c(N)nccc6c5)ncnc43)cc2)c1 [Example 10, (1-Amino-isoquinolin-6-ylmethyl)-{8-[4-(4-methyl-pyrazol-1-ylmethyl)-benzyl]-7,8-dihydro-6H-pyrimido[5,4-b][1,4]oxazin-4-yl}-amine]	20.5	5.04	–	–

Now from value to compound, other results behind:

IC50 [1] [µM]	IC50 [2] [µM]	SMILES	effect on retinal vascular permeability and retinal blood flow abnormalities [3]	oral availability [4]
5.37	29.9	NCc1ccc(CNc2nccc3c2ccn3Cc2ccc(Cn3ccccc3=O)cc2)cc1 [Example 7, 1-{4-[4-(4-Aminomethyl-benzylamino)-pyrrolo[3,2-c]pyridin-1-ylmethyl]-benzyl}-1H-pyridin-2-one]	–	–
29	38.6	NCc1ccc(CNc2nccc3c2ccn3CCCCc2ccccc2)cc1 [Example 5, (4-Aminomethyl-benzyl)-[1-(4-phenyl-butyl)-1H-pyrrolo[3,2-c]pyridin-4-yl]-amine]	–	–
5.46	5.69	O=c1ccccn1Cc1ccc(Cn2ccc3c(NCc4cnc5[nH]ccc5c4)nccc32)cc1 [Example 3, 1-(4-{4-[(1H-Pyrrolo[2,3-b]pyridin-5-ylmethyl)-amino]-pyrrolo[3,2-c]pyridin-1-ylmethyl}-benzyl)-1H-pyridin-2-one]	–	–
8.1	8.26	NCc1ccc(CNc2nccc3c2ccn3Cc2csc(-c3ccccc3)n2)cc1 [Example 9, (4-Aminomethyl-benzyl)-[1-(2-phenyl-thiazol-4-ylmethyl)-1H-pyrrolo[3,2-c]pyridin-4-yl]-amine]	–	–
5.32	10.3	c1ccc(-c2nc(Cn3ccc4c(NCc5cnc6[nH]ccc6c5)nccc43)cs2)cc1 [Example 4, [1-(2-Phenyl-thiazol-4-ylmethyl)-1H-pyrrolo[3,2-c]pyridin-4-yl]-(1H-pyrrolo[2,3-b]pyridin-5-ylmethyl)-amine]	–	–
